The source of these data is patent US12083140B2, “Pharmaceutical composition for preventing and treating glaucoma, containing adenosine derivative” (FUTURE MEDICINE CO., LTD., priority 2017, dated 2024).

Usually inhibition stands for the relative decrease from the control value, in per cent.

Data set [1] concerns histidine-requiring Salmonella (TA98, TA100, TA1535 and TA1537 strains) and tryptophan-requiring E. coli (WP2uvrA (pKM101) strain). The data set is described as follows: Genotoxicity, back-mutation test with and without metabolic activation. The format is cell-based.
A further data set concerns TIMP (TIMP 1, TIMP2). The data set is described as follows: TIMP enzyme protein and mRNA expression in trabecular meshwork tissue. The format is in vivo, C57BL/6J mice. The conditions noted are these: Example 2 oral 20 mg/kg once a day and 10 mg/kg twice a day; acetazolamide 4.17 mg/kg once a day. The protocol:
(§1) In Experimental Example 10, the expression amounts of these proteins and mRNAs in MMP and TIMP enzymes were measured for the eye tissues of the respective laboratory animals which the measurement of the intraocular pressure was completed, and the results are shown in FIG. 14 to FIG. 17. FIG. 14 and FIG. 15 show protein expression amounts of MMP (MMP2, MMP9) and TIMP (TIMP 1, TIMP2) enzymes, respectively. FIG. 16 and FIG. 17 show mRNA expression levels. In FIG. 14 to FIG. 17, Normal represents the expression level of the animal to which the dexamethasone was not treated in Experimental Example 10, Control represents the expression level of the animal to which only the excipient was administered in Experimental Example 10, and Acetazolamide represents the expression level of the animal to which acetazolamide was administered in Experimental Example 10.

The next data set deals with intraocular pressure. The data set is described as follows: Intraocular pressure reduction after oral administration, dexamethasone-elevated intraocular pressure. The class given is in vivo, C57BL/6J mice. The following applies: oral, 5, 10, 20 mg/kg once a day and 10 mg/kg twice a day, 22 days. The protocol:
In order to examine the intraocular pressure lowering effect of the derivatives of the present invention, the following animal experiments were performed. […] As controls, only the above excipients were administered to laboratory animals with elevated intraocular pressure once a day, or experimental animals were not treated with dexamethasone or with 4.17 mg/kg of acetazolamide, an intraocular pressure lowering agent, once a day.
Then, the intraocular pressure of the test animal was measured at predetermined intervals for 22 days, and the results are shown in FIG. 8 to FIG. 12. In FIG. 8 to FIG. 12, Control represents a control group in which dexamethasone is not treated to laboratory animals, Vehicle represents a control group in which only excipients were orally administered to laboratory animals with elevated intraocular pressure, and Acetazolamide represents control group in which acetazolamide, an intraocular pressure lowering agent was orally administered to laboratory animals with elevated intraocular pressure.

Another data set concerns the target hERG (Homo sapiens, UniProt Q12809). Nature of the data set: Cardiotoxicity, hERG ligand binding assay (fluorescence polarization). (Block of hERG is tested as a sign of cardiac risk.)
Another data set concerns rats. The data set is described as follows: Single dose toxicity test. The format is in vivo.
Data set [2] concerns extracellular matrix proteins (Fibronectin, SMA and MYOC). Nature of the data set: Anti-fibrotic effect on trabecular meshwork tissue (immunostaining). The class given is in vivo, C57BL/6J mice. The conditions noted are these: Example 2 oral 20 mg/kg once a day and 10 mg/kg twice a day; acetazolamide 4.17 mg/kg once a day. The procedure: In Experimental Example 10, the ocular tissues of each laboratory animal after measurement of intraocular pressure were extracted and sectioned and immunostaining using antibody was performed to confirm the expression of extracellular matrix proteins (Fibronectin, SMA and MYOC) and the results are shown in FIG. 13. In FIG. 13, Normal represents the trabecular meshwork of the animal which dexamethasone was not treated with in Experimental Example 10, Control represents the trabecular meshwork tissue of the animal to which only the excipient was administered in Experimental Example 10, Acetazolamide represents the trabecular meshwork tissue of the animal to which acetazolamide was administered in Experimental Example 10. Fluorescently stained tissue was observed under fluorescence microscope under the same conditions (magnification 200×, exposure time 1 sec).

For data set [3], the system named is TPA-induced mouse ear edema. The data set is described as follows: Anti-inflammatory activity, TPA-induced mouse ear edema. The class given is in vivo, ICR mice. The following applies: 0.5% in acetone. The procedure:
In order to investigate the anti-inflammatory activity of the derivatives of the present invention, the animal experiments were performed as below. Seven-week-old male ICR mice were treated with TPA (12-O-tetradecanoylphorbol 13-acetate, […]) in the right ear. […] The same experiment was performed by treating hydrocortisone used as a treatment agent for inflammation as a control at the same concentration.
Subsequently, secondly, the adenosine derivative compound of the present invention was treated after 6 hours from TPA treatment. Twenty-four hours after TPA treatment, the animals were euthanized using the cervical dislocation method. Then, a right ear sample was obtained using a 6 mm diameter punch. The activity could be confirmed by weighing using a microbalance. The inhibition rate (%) was calculated using the following Equation 1.

A further data set relates to each cell line. The data set is described as follows: Cytotoxicity, Cyto X cell viability assay kit. The class given is cell-based.
For another data set, the system named is MMP (MMP2, MMP9). The data set is described as follows: MMP enzyme protein and mRNA expression in trabecular meshwork tissue. The format is in vivo, C57BL/6J mice. The conditions noted are these: Example 2 oral 20 mg/kg once a day and 10 mg/kg twice a day; acetazolamide 4.17 mg/kg once a day. The procedure:
as §1

hERG, sequence (Q12809 whole entry): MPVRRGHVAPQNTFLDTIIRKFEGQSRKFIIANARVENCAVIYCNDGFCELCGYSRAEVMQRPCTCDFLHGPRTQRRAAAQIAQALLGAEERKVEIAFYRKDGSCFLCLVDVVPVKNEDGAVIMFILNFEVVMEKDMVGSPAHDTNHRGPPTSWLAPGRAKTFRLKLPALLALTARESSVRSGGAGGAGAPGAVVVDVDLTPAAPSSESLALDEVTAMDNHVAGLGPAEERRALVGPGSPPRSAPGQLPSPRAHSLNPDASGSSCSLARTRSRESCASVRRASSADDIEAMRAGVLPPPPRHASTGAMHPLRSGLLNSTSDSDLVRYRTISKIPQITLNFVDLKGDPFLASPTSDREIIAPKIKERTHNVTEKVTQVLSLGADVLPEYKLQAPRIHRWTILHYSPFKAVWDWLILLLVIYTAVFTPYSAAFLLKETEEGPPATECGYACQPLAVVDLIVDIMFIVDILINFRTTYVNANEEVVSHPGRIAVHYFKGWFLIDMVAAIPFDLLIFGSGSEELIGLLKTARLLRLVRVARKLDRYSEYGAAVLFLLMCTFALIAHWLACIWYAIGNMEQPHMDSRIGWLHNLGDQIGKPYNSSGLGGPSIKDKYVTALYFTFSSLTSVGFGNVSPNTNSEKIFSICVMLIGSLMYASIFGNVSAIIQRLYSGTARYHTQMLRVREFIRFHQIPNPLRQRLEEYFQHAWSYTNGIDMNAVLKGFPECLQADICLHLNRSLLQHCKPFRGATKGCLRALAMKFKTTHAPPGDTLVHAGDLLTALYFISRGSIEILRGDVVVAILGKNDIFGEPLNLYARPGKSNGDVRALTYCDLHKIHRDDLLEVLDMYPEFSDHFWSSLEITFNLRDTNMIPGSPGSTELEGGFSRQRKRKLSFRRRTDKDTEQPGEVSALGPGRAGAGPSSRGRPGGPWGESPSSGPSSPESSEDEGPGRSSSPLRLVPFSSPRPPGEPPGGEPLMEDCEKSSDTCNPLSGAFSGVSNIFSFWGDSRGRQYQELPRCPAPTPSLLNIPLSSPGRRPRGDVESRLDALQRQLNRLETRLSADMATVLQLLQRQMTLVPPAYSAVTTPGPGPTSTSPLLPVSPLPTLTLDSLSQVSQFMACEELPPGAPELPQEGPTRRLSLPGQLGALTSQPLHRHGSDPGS

As to `O[C@@H]1[C@H](O)CS[C@H]1n1cnc2c(NCc3cccc(Cl)c3)nc(Cl)nc21` [Example 2, (2R,3R,4S)-2-(2-chloro-6-(3-chlorobenzylamino)-9H-purin-9-yl)tetrahydrothiophene-3,4-diol], the “toxicity, Genotoxicity test” value in data set [1] is reported as “Not found”. Moreover, in [1] (all doses of each strain, regardless of metabolic activation), the “number of back-mutation reversion colonies” value was “did not exceed twice the negative control”. In addition, in the data set with TIMP (TIMP 1, TIMP2), the “protein and mRNA expression levels of TIMP enzyme compared with the normal group” value is listed as “significantly decreased”. In addition, in the data set on intraocular pressure, the “intraocular pressure, dose dependence” value is “reduction in intraocular pressure, which was dependent on the dose”. For the same compound, the “toxicity, Cardiotoxicity test” value at hERG is listed as “Not found”. The inhibition at 10 µM on hERG (human, hERG channel protein (ligand binding assay), probe red fluorescent hERG channel ligand tracer, 10 μM, read-out: inhibition rate (hERG channel ligand tracer binding)) is ≤ 50%. In addition, the “toxicity, Single dose toxicity test” value in the data set with rats (rat, in vivo) is recorded as “Not found”. Also, in the data set on rats (single dose of 2,000 mg/kg, 5 male rats and 5 female rats), the dead animals entry was “there was no dead animal”. The “expression of fibronectin, SMA and MYOC protein in trabecular meshwork tissue” value in data set [2] was “greatly reduced”. Also, the “TPA-induced mouse ear edema” value in [3] is listed as “reduced by a small amount”. Besides, the “toxicity, Cytotoxicity Test” value in the data set with each cell line is listed as “Not found”. Also, in the data set on MMP (MMP2, MMP9), the “protein and mRNA expression levels of MMP enzyme compared with the normal group” value is “significantly increased”.
